Results as given in PubChem BioAssay AID1645868 (Buhrlage Lab, Dana-Farber Cancer Institute and Novartis …, 2021).
Calls of active or inactive are those of the source.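 Rule for the calls: active = maximal percent inhibition of the deubiquitinase OTUD3 of at least 30% across the tested doses; inactive = the rest.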

Target: OTU domain-containing protein 3 (Homo sapiens) (UniProt Q5T2D3)
Assay: Validation of screening hits, potency titration, in vitro enzymatic, OTU domain-containing protein 3 DUB inhibitors (AID 1645868)
Settings: purified OTUD3, ubiquitin-rhodamine cleavage fluorescence, 2 h

Sequence of OTU domain-containing protein 3 (Homo sapiens) (Q5T2D3 whole entry, looked up, the tested form may be a part): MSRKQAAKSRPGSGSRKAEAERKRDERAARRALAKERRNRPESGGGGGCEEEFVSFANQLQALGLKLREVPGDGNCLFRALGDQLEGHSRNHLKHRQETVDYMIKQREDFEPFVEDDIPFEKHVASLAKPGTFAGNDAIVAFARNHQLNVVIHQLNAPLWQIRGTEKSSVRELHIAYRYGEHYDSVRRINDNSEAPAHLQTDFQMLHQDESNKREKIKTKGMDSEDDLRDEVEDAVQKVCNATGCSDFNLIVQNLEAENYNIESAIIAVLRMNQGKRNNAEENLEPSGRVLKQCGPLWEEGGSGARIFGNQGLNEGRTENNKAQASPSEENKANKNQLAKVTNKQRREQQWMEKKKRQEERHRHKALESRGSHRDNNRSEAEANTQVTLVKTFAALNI

| SMILES | IC50 |
| --- | --- |
| COCCCN1CCS(=O)(=O)c2c(Cl)c(F)nc(Oc3ccccc3F)c21 | > 50 µM (inactive) |
| CCCCc1nc2sc3c(NCCN4CCOCC4)ncnc3c2c2c1CCC2 | > 50 µM (inactive) |
| CCC(=O)N1c2ccccc2NC2=C(C(=O)CC(c3ccccc3OCc3ccccc3)C2)C1c1ccccc1 (centres undefined) | 12.2 µM |
| O=c1c2c(ccn1Cc1cc(F)ccc1F)ccn2Cc1cccnc1 | > 50 µM (inactive) |
| Cc1cc(N2CCOCC2)nc2ccc(NC(=O)CCC(=O)Nc3ccc(F)cc3)cc12 | > 50 µM (inactive) |
| Cc1nn(-c2cccc(F)c2)c2c1c(C)c(CCC(=O)NCc1ccccn1)c(=O)n2C | > 50 µM (inactive) |
| Cc1ccc2c(c1)c(=O)c(C(=O)c1ccccc1)cn2CC(=O)Nc1ccccc1 | 31.5 µM |
| CC1Cc2ccccc2N1C(=O)Cn1c(=O)cc(O)c2ccccc21 (centres undefined) | > 50 µM (inactive) |
| COc1ccc(CCC(=O)Nc2ncc(C)s2)cc1OC | > 50 µM (inactive) |
| O=C(c1cc(Cl)ccc1Cl)N1CCN(c2ccc3nnc(-c4ccco4)n3n2)CC1 | > 50 µM (inactive) |
| O=C(CNC(=O)c1cccc(F)c1)Nc1nc2ccccc2[nH]1 | 35.4 µM |
| COc1ccc(NC(=O)c2ccccc2OCC(=O)Nc2ccccc2C(F)(F)F)c(C)c1 | 29.8 µM |
| CCOc1ccc(NC(=O)Cn2c(=O)n(CCCCCC(=O)NCc3ccc(F)cc3)c(=O)c3sccc32)cc1 | 2.67 µM |
| N#Cc1cccc(NC(=O)Nc2cccn(Cc3ccccc3F)c2=O)c1 | > 50 µM (inactive) |
| Nc1nonc1C(=O)NCCNCc1cccc(OCc2ccc(Cl)cc2)c1 | > 50 µM (inactive) |
| Cc1ccc(CNC(=O)Cn2c(=O)n(-c3ccccc3)c3ncccc32)cc1 | > 50 µM (inactive) |
| N#Cc1ccc(NC(=O)Nc2cccn(Cc3c(F)cccc3Cl)c2=O)cc1 | > 50 µM (inactive) |
| COc1cccc2c1NC(=O)C21CCN(C(=O)Nc2cccc3ccccc23)CC1 | > 50 µM (inactive) |
| O=S1(=O)NC(=NCCc2ccc(Cl)cc2Cl)c2ccccc21 | > 50 µM (inactive) |
| Clc1cccc(N2CCN(c3ncnc4nc[nH]c34)CC2)c1 | > 50 µM (inactive) |
| Cc1ccccc1Cn1ccc(NC(=O)c2noc(C)c2[N+](=O)[O-])n1 | > 50 µM (inactive) |
| CC(C)(C)C(=O)C1C2C(=O)N(c3ccc4c(c3)OCO4)C(=O)C2C2c3ccccc3C=CN12 (centres undefined) | > 50 µM (inactive) |
| CN=C(N)NCCC/C=C/CCCC(C)CC(C)C1OC(=O)/C=C/C(C)C(O)CC(O)C(C)C(O)CCC(C)C(O)CC2(O)OC(CC(OC(=O)CC(=O)O)CC(O)CC(O)C(C)C(O)/C=C/C1C)CC(O)C2O (centres undefined) | > 50 µM (inactive) |

| SMILES | IC50 |
| --- | --- |
| COc1cc2c(c3oc4cccc(O)c4c(=O)c13)C1C=COC1O2 (centres undefined) | > 50 µM (inactive) |
| CCCCNC(=O)c1cc2cccnc2n(Cc2ccccc2)c1=O | > 50 µM (inactive) |
| Cn1cc(-c2noc(Cc3cccc(C(F)(F)F)c3)n2)ccc1=O | > 50 µM (inactive) |
| O=C(Cc1cccs1)Nc1cc(F)c2nc(N3CCOCC3)ccc2c1 | > 50 µM (inactive) |
| CCc1ccc(C(C)NC(=O)C2CCN(c3ccc4nncn4n3)CC2)cc1 (centres undefined) | > 50 µM (inactive) |
| O=C(NC1CCS(=O)(=O)C1)c1ccc(N2CCC(Cc3ccccc3)CC2)nn1 (centres undefined) | > 50 µM (inactive) |
| COc1ccc(-n2c(SCC(=O)c3ccc(F)cc3)nnc2-c2cccnc2)cc1 | 26.8 µM |
| CCOc1ccc(NC(=O)COc2cccc(-n3cnnn3)c2)cc1 | > 50 µM (inactive) |
| O=C(NCc1ccc(Br)cc1)c1ccc(-c2cccnc2)nc1 | > 50 µM (inactive) |
| O=C(Nc1nc2ccccc2s1)c1ccc2c(c1)C(=O)N(Cc1cccnc1)C2=O | 38.5 µM |
| Cc1cccc(-n2ccnc(SCC(=O)Nc3ccc(Cl)cc3F)c2=O)c1 | 27.7 µM |
| CCc1nnc(NC(=O)c2nnn(-c3ccccc3Cl)c2C)s1 | > 50 µM (inactive) |
| COc1ccc(C(=O)Nc2cc(F)c3nc(N4CCOCC4)ccc3c2)c(OC)c1 | > 50 µM (inactive) |
| O=C(CSc1ncnc2c1sc1cccc(F)c12)N1CCCCCC1 | > 50 µM (inactive) |
| CCCCN(C)C(=O)c1cc2c(=O)n3cccc(C)c3nc2n1Cc1ccccc1 | > 50 µM (inactive) |
| COc1ccc(NC2c3ccccc3C(=O)N2c2ccccn2)cc1 (centres undefined) | > 50 µM (inactive) |
| COc1cccc(-c2cc(=O)[nH]c(Nc3nc(C)c4ccccc4n3)n2)c1 | > 50 µM (inactive) |
| CCCNC(=O)c1ccn(-c2ccc3ccc(-c4cnn(C)c4)cn23)n1 | > 50 µM (inactive) |
| COc1ccc(NC(=O)C2CCCN(S(=O)(=O)N3CCCCCC3)C2)cc1 (centres undefined) | > 50 µM (inactive) |
| Fc1ccc(CN2CCc3nc4cccnc4cc3C2)cc1 | > 50 µM (inactive) |
| Cc1ccc(C(=O)Nc2ccc(S(=O)(=O)N3CCCC3)cc2)cc1Br | > 50 µM (inactive) |
| Cc1cccc(CNC(=O)C2CCCN(S(=O)(=O)Cc3ccc(F)cc3)C2)c1 (centres undefined) | 41.6 µM |
| Cc1ccc(NC(=O)c2sc3ncn(CC(=O)N4CCN(c5ccccn5)CC4)c(=O)c3c2C)c(Br)c1 | 37.9 µM |

| SMILES | IC50 |
| --- | --- |
| O=C(Nc1ccc2c(c1)OCO2)C1CCN(Cc2nc3ccccc3s2)CC1 | > 50 µM (inactive) |
| COc1c2nc3ccccc3oc-2cc(=O)c1OC | > 50 µM (inactive) |
| COc1ccc(NC(=O)c2nc3n(n2)-c2ccccc2S(=O)(=O)N3)cn1 | > 50 µM (inactive) |
| COc1ccc(C(=O)Nc2ccc3c(c2)C(=O)N(C)c2ccccc2O3)cc1 | > 50 µM (inactive) |
| Cc1ccc(Cc2nc(-c3ccc(=O)[nH]c3)no2)cc1 | > 50 µM (inactive) |
| COc1ccc(NC(=O)Cn2c(CS(=O)(=O)c3ccc(C)cc3)nc3ccccc32)cc1 | 25.7 µM |
| O=c1ncn(Cc2ccc3c(c2)OCO3)cc1-c1ncc(C(F)(F)F)cc1Cl | > 50 µM (inactive) |
| COCCCNC(=O)Cn1c(=O)n(Cc2ccc(C(=O)NCc3ccccc3OC)cc2)c(=O)c2ccccc21 | > 50 µM (inactive) |
| COc1cc2c(cc1NC(=O)c1ccc(-n3cnnn3)cc1)oc1ccccc12 | > 50 µM (inactive) |
| O=C(Cn1c(=O)n(-c2ccccc2)c(=O)c2ccc(C(=O)NCc3ccc4c(c3)OCO4)cc21)NCCC1=CCCCC1 | 34.4 µM |
| O=C(CNC(=O)c1cc2ccccc2o1)Nc1ccc2c(c1)OCCO2 | 33.8 µM |
| Cc1c(-c2ccc(C#N)cc2)oc2ccc(Br)cc2c1=O | > 50 µM (inactive) |
| COc1ccccc1Nc1ncc(C(=O)NCCc2ccc(Cl)cc2)c2ccccc12 | 21.2 µM |
| CCC(C)Oc1cccc(C(=O)Nc2ccc(CN3CCOCC3)cc2)c1 (centres undefined) | > 50 µM (inactive) |
| O=C(c1nnn(Cc2ccc(Cl)cc2)c1-n1cccc1)N1CCCC1 | > 50 µM (inactive) |
| Cc1cc(Cl)ccc1Nc1nc(Nc2cccc(F)c2)nc2nccnc12 | > 50 µM (inactive) |
| Cc1ccccc1C(=O)OCCN1C(=O)c2cccc3c(N4CCOCC4)ccc(c23)C1=O | > 50 µM (inactive) |
| CN(c1ccccc1)c1nc(=O)n(CC(=O)Nc2ccc3c(c2)OCCO3)c2ccccc12 | > 50 µM (inactive) |
| COc1ccc(C)cc1NC(=O)C1CC(=O)Nc2nc(SCc3ccccc3)nn21 (centres undefined) | 16.9 µM |
| CCOc1ccccc1NC(=O)COC(=O)C(c1ccccc1)c1ccccc1 | > 50 µM (inactive) |
| O=C(Nc1ccc(F)c(Cl)c1)c1ccc(N2CCCCS2(=O)=O)cc1Cl | > 50 µM (inactive) |
| O=C(COc1nc2ccccc2nc1N1CCOCC1)NC(c1ccccc1)c1ccccc1 | > 50 µM (inactive) |
| N#Cc1cccc(S(=O)(=O)N2CCc3nc4ccccc4n3CC2)c1 | 28.3 µM |
